These are literature values, as cited in patent publication US4795743A, “2'-deamino-2'-hydroxyistamycin Bo derivatives of low toxicity” (Zaidan Hojin Biseibutsu Kagaku Kenkyu Kai, priority 1986, dated 1989).

The data set has as its system resistant bacteria, Pseudomonas aeruginosa, resistant strains of gram-negative and gram-positive bacteria. The conditions noted are these: background, earlier filings; cited from earlier work.

Each structure is given as a SMILES string.

In the case of `CNCC1CCC(N)C(OC2C(N)CC(O)C(N(C)C(=O)CN)C2O)O1` (stereo not shown) [3-O-demethylistamycin B], the antibacterial activity entry was “active against resistant bacteria, Pseudomonas aeruginosa and also against a variety of resistant strains of gram-negative and gram-positive bacteria”.
